Test results reported in patent US20120016019A1, “PHARMACEUTICAL COMPOSITION FOR TREATING OR PREVENTING CANCER” (priority 2010, published 2012).
Where “and” joins values, the source holds several entries; their conditions need not be identical. Identical values can stand only once.

Tested on: HCC 1419
Assay: XTT cell viability assay, HCC 1419
Details: for The absorbance, Mean value / The absorbance / The absorbance, group - Blank: XTT 500 nm; for The absorbance: single wells
Experimental: Cancer cell lines HCC 1419, MCF-7, MDA-MB-468, SKBR3, PC3, HT1299, Saos-2, C-6, AsPc, MDA-MB-231, RKO, HeLa and TT, and normal cell lines HME 50 HT, BJ and CCD-1074sk were tested for changes in metabolism (XTT assay) and cell death (cell counts).
Cells were plated into 48-well Corning CellBind™ plates at densities of 20,000 cells for normal cells and 10,000˜20,000 cells for cancer cells. 24 to 48 h after plating, cells were treated with the composition according to the invention at concentrations of 4.5e-2M. The first time point treated with the composition of the invention is 0 h. At 3 days after the first treatment with the composition of the invention, medium was changed and the composition of the invention at the same concentrations were added to the cultured cells.
The XTT assay is an accepted analysis technique for viability and cytotoxicity of anticancer drugs or other pharmaceutical compositions. Cells were seeded in a 96-well tissue culture plate at a density of 10,000 cells for normal cells and 5,000 cells for cancer cells. After incubation period, the formazan dye formed was quantitated using an ELISA reader. The optimal wavelength used in experiments was 500 nm, and it was measured at 0 h, 12 h, 24 h, 48 h, 4 d and 7 d, respectively. The obtained values were generated using the software SoftMax Pro 4.8.
The cell viability was calculated according to the manufacturer's instructions as follows (the term “blank” means XTT in medium only):
Cellular cytotoxicity was calculated according to the manufacturer's instructions as follows: […]

[1] = HCC 1419, 1st week (LC50), 24 h
[2] = HCC 1419, 1st week (LC50), 48 h
[3] = HCC 1419, 2nd week (recovery), 0 h
[4] = HCC 1419, 2nd week (recovery), 48 h
[5] = HCC 1419, 2nd week (recovery), 4 d

In the case of `CC(=O)O[C@H]1C(=O)[C@@]2(C)[C@H]([C@H](OC(=O)c3ccccc3)[C@]3(O)C[C@H](OC(=O)[C@H](O)[C@@H](NC(=O)c4ccccc4)c4ccccc4)C(C)=C1C3(C)C)[C@]1(OC(C)=O)CO[C@@H]1C[C@@H]2O` [Taxol], the “The absorbance, Mean value” (HCC 1419, 1st week (LC50), 0 h) is reported as 2.5924, the The absorbance (HCC 1419, 1st week (LC50), 0 h) is reported as 2.5534 and 2.6558 and 2.5679 and the “The absorbance, group - Blank” value (HCC 1419, 1st week (LC50), 12 h) is reported as 2.0317. For the same molecule, the “The absorbance, Mean value” [1] was 2.8401, the “The absorbance, group - Blank” value [1] was 2.5035 and the The absorbance [1] was 2.9427 and 2.856 and 2.7216. For the same molecule, the “The absorbance, Mean value” [2] was 3.4706, the “The absorbance, group - Blank” value [2] was 3.1340 and the The absorbance [2] was 3.7945 and 2.9086 and 3.7087. The “The absorbance, Mean value” (HCC 1419, 1st week (LC50), 4 d) was 2.6666, the The absorbance (HCC 1419, 1st week (LC50), 4 d) was 2.6667 and 2.7014 and 2.6316 and the “The absorbance, Mean value” (HCC 1419, 1st week (LC50), 7 d) was 2.5386. For the same molecule, the The absorbance (HCC 1419, 1st week (LC50), 7 d) was 2.6877 and 2.5421, the “The absorbance, Mean value” [3] was 2.4911 and the The absorbance [3] was 2.7348. The The absorbance (HCC 1419, 2nd week (recovery), 24 h) was 2.4388, the “The absorbance, Mean value” [4] was 2.6525 and the “The absorbance, group - Blank” value [4] was 2.4436. The The absorbance [4] was 2.6611 and 2.6375 and 2.6588, the “The absorbance, Mean value” [5] was 2.6058 and the The absorbance [5] was 2.7024 and 2.5033 and 2.6116. The The viability (HCC 1419, XTT, 1/100 of %, 2nd week (recovery), 48 h) was 0.8937, the The viability (human, 12 h, 220 nM) was 0.7658 and the The viability (human, 48 h, 220 nM) was 1.1461. It also gave a The viability (human, 7 d, 220 nM) of 0.9883.
